From US20120053119A1, “THERAPEUTIC METHOD FOR INCREASING PANCREATIC BETA CELL MASS” (priority 2009, published 2012)

Experiments:
Assay type in all cases: cell-based
[1] = test system: Wnt target genes; assay: Wnt signaling pathway-focused microarray (SuperArray) of INS-1 cells treated with SDF-1; details: 4 hrs
Description: FIG. 8. Wnt signaling focused array analysis. INS-1 cells were stimulated by SDF-1 (10 nM) for 4 hr. Total RNA was isolated and biotin-labeled complementary RNAs were generated. The Wnt signaling pathway-focused microarray filters (SuperArray Bioscience) were hybridzed with these biotin-labeled targets at 60 degree overnight. The filters were washed and subsequently incubated with alkaline phosphatase-conjugated streptavidin and CDP-substrate. The chemiluminescent images were captured. For quantification, the spot intensity was measured and normalized to the value of the housekeeping gene GADPH. Shown is a representative image of the focused array.
Gene expression profiling on focused microarrays INS-1 cells were untreated or treated with 10 nM SDF-1 for 4 hrs. Total RNA was isolated and Biotin-labeled complimentary RNAs were generated using the TrueLabeling-AMP Linear RNA Amplification Kit (SuperArray Bioscience Corp.) The Wnt-signaling pathway-focused microarray filters (118 probes) (SuperArray Bioscience Corp.) were hybridized with these biotin-labeled targets (5 microg/array at 60 C overnight. The filters were washed and subsequently incubated with alkaline phosphatase-conjugated streptavidin and CDPStar substrate. The Chemiluminescent images were captured using Kodak Digital Station 440 (Perkin Elmer). For quantification, the spot intensity was measured and normalized to the value of the housekeeping gene GAPDH. Fold-changes in gene expression levels were determined by comparisons of hybridization densities of SDF-1 treated versus untreated INS-1 cells. Real time RT-PCR was carried out by using the SYBR® Green QPCR kit (Stratagene). Briefly, INS-1 cells were treated with 10 nM SDF-1 or PBS vehicle control for 4 h. Total RNA was reverse-transcribed to cDNA using Super-Script II reverse transcriptase (Invitrogen). Real-time PCR was performed to amplify cyclin D1 and beta-catenin.
The expression of transcripts in INS-1 cells in response to SDF-1 (10 nM, 4 hrs) was determined on focused arrays of genes expressed in the Wnt signaling pathway. […] This finding is consistent with the down-regulation of genes expressing components of the beta-catenin destruction box involved in the degradation of beta-catenin that occurs in the absence of active Wnt signaling; for example, axin, glycogen synthase kinase-3 (Gsk3) and casein kinase 1 (Csnk1). These findings are consistent with the mechanism of Wnt/Fz-induced signaling involving Galphai/o activation of disheveled (Dv1) and the inhibition of the destruction box enzymes GSK3 and Csnk1 that destabilize and degrade betacatenin.

[2] = test system: alpha-TC-1 cells; assay: BrdU incorporation cell proliferation assay in alpha-TC-1 cells; details: serum starved alpha-TC-1 cells, SDF-1 10 nM, 20 hrs
Description: FIG. 16. BrdU incorporation cell proliferation assay. Serum starved alpha-TC-1 cells were treated with either PBS (Control) or SDF-1 (10 nM) for 20 hrs, and their proliferation rate was examined by a BrdU incorporation assay. Data represent means±S.D. of three experiments. Statistical significance is depicted as * (p<0.05) when compared with control values (left bar).

[3] = test system: Akt; assay: Phospho-Akt to Akt ratio by Western immunoblot in alphaTC-1 cells
Excerpt: FIG. 18. Activation of CXCR4 by SDF-1 in alphaTC-1 cells induces phosphorylation of Akt. Shown is a semi-quantitative measurement of the ratio of phospho-Akt to Akt (lower) determined by Western immunoblots (upper).

[4] = test system: human islets; assay: SDF-1 mRNA by QRT-PCR in human islets ex vivo; details: 4 hours; SDF-1 10 nM or 50 nM; two cytokine mixtures
Description: FIG. 29. […] 50 human islets were treated with control, cytokine mixture or SDF-1 for 4 hr, mRNA was then extracted and QRT-PCR was performed. Cytokines 1: 2 ng/ml IL-1beta, 10 ng/ml TNF-alpha, 10 ng/ml IFN-gamma. Cytokines 2: 10 ng/ml IL-1beta, 50 ng/ml TNF-alpha, 50 ng/ml IFN-gamma.
Groups of 50 human islet cells were treated with one of vehicle control, two different cytokine mixtures (Cytokines 1: 2 ng/ml IL-1beta, 10 ng/ml TNF-alpha, 10 ng/ml IFN-gamma; Cytokines 2: 10 ng/ml IL-1beta, 50 ng/ml TNF-alpha, 50 ng/ml IFN-gamma), or SDF-1 at one of two different concentrations (10 nM or 50 nM) for 4 hours. SDF-1 mRNA was then extracted and QRT-PCR was performed.

[5] = test system: INS-1 cells; assay: ATP-lite cell viability assay, glucose toxicity; details: 25 mM glucose, SDF-1 added day 0, 2, 4, read day 6
Description: FIG. 34. […] For bars 3-8, SDF-1 was added at the indicated concentrations to high glucose concentration well plates at day 0, 2, 4. Cell viability was measured at day 6. N=4.
SDF-1 was added at various concentrations (0.1 nM, 0.25 nM, […], 1 nM, 2.5 nM, and 5 nM) to high glucose concentration well plates at day 0, 2, 4. Cell viability was measured at day 6, using the ATP-lite cell viability assay (PerkinElmer, Boston, Mass.).

“SDF-1: small, secreted 70 amino acid peptide chemokine, SEQ ID NO: 1, ligand of CXCR4” was tested, and the “mRNA fold change by SDF-1” value ([1]; gene Axin1, SDF-1 10 nM) was −2.58 fold, the “mRNA fold change by SDF-1” value ([1]; gene Ccnd1 (Cyclin D1), SDF-1 10 nM) was 1.48 fold and the “mRNA fold change by SDF-1” value ([1]; gene Ccnd2 (Cyclin D2), SDF-1 10 nM) was −2.29 fold. For the same substance, the “mRNA fold change by SDF-1” value ([1]; gene Csnk2a1 (Casein kinase II, Alpha1), SDF-1 10 nM) was −1.42 fold, the “mRNA fold change by SDF-1” value ([1]; gene Csnk2b (Casein kinase 2, beta subunit), SDF-1 10 nM) was −3.03 fold and the “mRNA fold change by SDF-1” value ([1]; gene Ctbp1 (C-terminal binding protein 1), SDF-1 10 nM) was −2.32 fold. For the same substance, the “mRNA fold change by SDF-1” value ([1]; gene Ctnnb1 (Catenin (cadherin associated protein), beta 1), SDF-1 10 nM) was 1.99 fold, the “mRNA fold change by SDF-1” value ([1]; gene Cxxc4 (CXXC finger 4), SDF-1 10 nM) was −1.43 fold and the “mRNA fold change by SDF-1” value ([1]; gene Dvl1 (Dishevelled, dsh homolog 1), SDF-1 10 nM) was −1.92 fold. The “mRNA fold change by SDF-1” value ([1]; gene Fosl1 (Fos-like antigen 1), SDF-1 10 nM) was 1.72 fold, the “mRNA fold change by SDF-1” value ([1]; gene Foxn1 (Forkhead box N1), SDF-1 10 nM) was 1.66 fold and the “mRNA fold change by SDF-1” value ([1]; gene Fshb (Follicle stimulating hormone beta), SDF-1 10 nM) was 1.69 fold. For the same substance, the “mRNA fold change by SDF-1” value ([1]; gene Fzd2 (Frizzled homolog 2), SDF-1 10 nM) was 1.43 fold, the “mRNA fold change by SDF-1” value ([1]; gene Gsk3a (Glycogen synthase kinase 3 alpha), SDF-1 10 nM) was −1.67 fold and the “mRNA fold change by SDF-1” value ([1]; gene Gsk3b (Glycogen synthase kinase 3 beta), SDF-1 10 nM) was −1.51 fold. For the same substance, the “mRNA fold change by SDF-1” value ([1]; gene Lrp5_predicted (Low density lipoprotein receptor-related protein 5), SDF-1 10 nM) was 1.72 fold, the “mRNA fold change by SDF-1” value ([1]; gene Myc, SDF-1 10 nM) was −2.55 fold and the “mRNA fold change by SDF-1” value ([1]; gene Ppp2cb (Protein phosphatase 2, catalytic subunit, beta isoform), SDF-1 10 nM) was −2.12 fold. The “mRNA fold change by SDF-1” value ([1]; gene Ppp2r1b (Protein phosphatase 2, regulatory subunit A (PR 65), beta isoform), SDF-1 10 nM) was −1.71 fold, the “mRNA fold change by SDF-1” value ([1]; gene Rhoa (Ras homolog gene family, member A), SDF-1 10 nM) was −1.32 fold and the “mRNA fold change by SDF-1” value ([1]; gene Slc9a3r1 (Solute carrier family 9, isoform 3 regulator 1), SDF-1 10 nM) was 1.43 fold. The “mRNA fold change by SDF-1” value ([1]; gene Tcfe2a (Transcription factor E2a), SDF-1 10 nM) was 1.61 fold, the “mRNA fold change by SDF-1” value ([1]; gene Wif1 (Wnt inhibitory factor 1), SDF-1 10 nM) was −1.92 fold and the “mRNA fold change by SDF-1” value ([1]; gene Wnt7b (Wingless-related MMTV integration site 7B), SDF-1 10 nM) was 1.59 fold. For the same substance, the “proliferation of alpha cells (BrdU incorporation)” value [2] was “stimulates the proliferation”, the “Akt activation (phosphorylation) in alpha cells” value [3] was “activates Akt” and the “SDF-1 expression (mRNA) in human islets” value [4] was “induce SDF-1 expression”. For the same substance, the “protection of cell viability against glucose toxicity” value [5] was “dose-dependently protects”.
